According to the NIST ThermoML archive (doi:10.1016/j.jct.2016.09.030):

Assay: xn = mol fraction of the nth substance listed
Conditions: 100 kPa, Liquid; for viscosity: Concentric cylinders viscometry; for mass density: Vibrating tube method

CCOC(=O)CCC(=O)OCC [diethyl butanedioate] + CC(C)CCO
Conditions | mass density [kg/m3] | viscosity [mPa·s]
288.15 K, x1 = 0.1 | 845.17 | 3.582
288.15 K, x1 = 0.2 | 875.25 | 3.029
288.15 K, x1 = 0.3 | 902.72 | 2.76
288.15 K, x1 = 0.3999 | 927.82 | 2.625
288.15 K, x1 = 0.5 | 951.1 | 2.58
288.15 K, x1 = 0.5999 | 972.64 | 2.6
288.15 K, x1 = 0.7 | 992.67 | 2.667
288.15 K, x1 = 0.7999 | 1011.24 | 2.808
288.15 K, x1 = 0.9002 | 1028.55 | 2.943
288.15 K, x1 = 1 | 1044.83 | 3.195
293.15 K, x1 = 0.1 | 841.19 | 3.097
293.15 K, x1 = 0.2 | 871.04 | 2.621
293.15 K, x1 = 0.3 | 898.32 | 2.396
293.15 K, x1 = 0.3999 | 923.26 | 2.283
293.15 K, x1 = 0.5 | 946.4 | 2.25
293.15 K, x1 = 0.5999 | 967.82 | 2.271
293.15 K, x1 = 0.7 | 987.73 | 2.332
293.15 K, x1 = 0.7999 | 1006.2 | 2.455
293.15 K, x1 = 0.9002 | 1023.43 | 2.573
293.15 K, x1 = 1 | 1039.63 | 2.807
298.15 K, x1 = 0.1 | 837.19 | 2.712
298.15 K, x1 = 0.2 | 866.82 | 2.321
298.15 K, x1 = 0.3 | 893.91 | 2.139
298.15 K, x1 = 0.3999 | 918.7 | 2.053
298.15 K, x1 = 0.5 | 941.69 | 2.025
298.15 K, x1 = 0.5999 | 962.98 | 2.048
298.15 K, x1 = 0.7 | 982.79 | 2.103
298.15 K, x1 = 0.7999 | 1001.17 | 2.207
298.15 K, x1 = 0.9002 | 1018.32 | 2.308
298.15 K, x1 = 1 | 1034.44 | 2.491
303.15 K, x1 = 0.1 | 833.18 | 2.377
303.15 K, x1 = 0.2 | 862.59 | 2.056
303.15 K, x1 = 0.3 | 889.5 | 1.905
303.15 K, x1 = 0.3999 | 914.12 | 1.834
303.15 K, x1 = 0.5 | 936.98 | 1.817
303.15 K, x1 = 0.5999 | 958.15 | 1.838
303.15 K, x1 = 0.7 | 977.86 | 1.889
303.15 K, x1 = 0.7999 | 996.14 | 1.981
303.15 K, x1 = 0.9002 | 1013.2 | 2.069
303.15 K, x1 = 1 | 1029.25 | 2.229
308.15 K, x1 = 0.1 | 829.15 | 2.096
308.15 K, x1 = 0.2 | 858.35 | 1.831
308.15 K, x1 = 0.3 | 885.07 | 1.707
308.15 K, x1 = 0.3999 | 909.54 | 1.65
308.15 K, x1 = 0.5 | 932.26 | 1.638
308.15 K, x1 = 0.5999 | 953.31 | 1.661
308.15 K, x1 = 0.7 | 972.91 | 1.707
308.15 K, x1 = 0.7999 | 991.1 | 1.789
308.15 K, x1 = 0.9002 | 1008.09 | 1.868
308.15 K, x1 = 1 | 1024.08 | 2.008
313.15 K, x1 = 0.1 | 825.09 | 1.867
313.15 K, x1 = 0.2 | 854.08 | 1.649
313.15 K, x1 = 0.3 | 880.62 | 1.547
313.15 K, x1 = 0.3999 | 904.94 | 1.502
313.15 K, x1 = 0.5 | 927.52 | 1.496
313.15 K, x1 = 0.5999 | 948.47 | 1.518
313.15 K, x1 = 0.7 | 967.97 | 1.562
313.15 K, x1 = 0.7999 | 986.08 | 1.635
313.15 K, x1 = 0.9002 | 1002.99 | 1.706
313.15 K, x1 = 1 | 1018.9 | 1.821
318.15 K, x1 = 0.1 | 821.01 | 1.656
318.15 K, x1 = 0.2 | 849.79 | 1.475
318.15 K, x1 = 0.3 | 876.16 | 1.391
318.15 K, x1 = 0.3999 | 900.33 | 1.356
318.15 K, x1 = 0.5 | 922.78 | 1.354
318.15 K, x1 = 0.5999 | 943.61 | 1.377
318.15 K, x1 = 0.7 | 963.02 | 1.419
318.15 K, x1 = 0.7999 | 981.04 | 1.485
318.15 K, x1 = 0.9002 | 997.88 | 1.549
318.15 K, x1 = 1 | 1013.72 | 1.66
323.15 K, x1 = 0.1 | 816.9 | 1.496
323.15 K, x1 = 0.2 | 845.48 | 1.346
323.15 K, x1 = 0.3 | 871.68 | 1.271
323.15 K, x1 = 0.3999 | 895.7 | 1.247
323.15 K, x1 = 0.5 | 918.03 | 1.243
323.15 K, x1 = 0.5999 | 938.75 | 1.27
323.15 K, x1 = 0.7 | 958.06 | 1.308
323.15 K, x1 = 0.7999 | 975.99 | 1.369
323.15 K, x1 = 0.9002 | 992.76 | 1.428
323.15 K, x1 = 1 | 1008.55 | 1.523
